Measurements from patent US5208344A, “Naphthalenepropionic acid derivatives as anti-inflammatory/antiallergic agents” (American Home Products Corporation, priority 1991, dated 1993).

How the values were obtained:
5-lipoxygenase = biological target: T1, 5-lipoxygenase (Homo sapiens, UniProt P09917); assay: inhibition of 5-lipoxygenase in human whole blood (LTB4); type: cell-based; conditions: human whole blood
T1 construct: Blood is obtained in 50-100 ml quantities from male donors; endogenous in cells; host or cells: human whole blood (leukocytes) from male donors
T1 sequence (P09917 1-674): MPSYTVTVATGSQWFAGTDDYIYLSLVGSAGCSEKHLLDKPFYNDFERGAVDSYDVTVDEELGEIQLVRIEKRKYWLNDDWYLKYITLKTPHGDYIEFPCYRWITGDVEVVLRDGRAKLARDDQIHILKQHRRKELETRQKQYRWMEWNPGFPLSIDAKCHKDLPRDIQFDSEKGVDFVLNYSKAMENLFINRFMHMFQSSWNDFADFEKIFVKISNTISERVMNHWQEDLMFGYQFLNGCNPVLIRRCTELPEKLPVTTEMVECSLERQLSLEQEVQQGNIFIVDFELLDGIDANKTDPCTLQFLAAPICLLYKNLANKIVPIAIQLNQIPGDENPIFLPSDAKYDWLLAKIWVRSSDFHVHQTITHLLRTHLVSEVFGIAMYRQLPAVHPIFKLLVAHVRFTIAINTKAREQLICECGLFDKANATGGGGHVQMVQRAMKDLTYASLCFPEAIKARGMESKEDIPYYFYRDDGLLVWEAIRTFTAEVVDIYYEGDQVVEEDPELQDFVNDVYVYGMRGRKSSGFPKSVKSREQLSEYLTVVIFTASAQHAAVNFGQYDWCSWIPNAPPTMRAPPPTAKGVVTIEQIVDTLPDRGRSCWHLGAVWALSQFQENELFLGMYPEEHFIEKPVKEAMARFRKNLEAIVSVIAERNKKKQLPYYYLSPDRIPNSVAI
Description: The assay of this Example measures the ability of the compounds tested to inhibit 5-lipxygenase in human whole blood.
Blood is obtained in 50-100 ml quantities from male donors. White blood cell counts and differentials are made. Two ml of blood are placed in a 15 ml polypropylene test tube. Compounds are solubilized in dimethylsulfoxide and diluted 1:10 in 10% bovine serum albumin in phosphate buffered saline, pH 7.4 resulting in a final dimethylsulfoxide concentration of 0.1% in the blood. Then, compounds are added to the blood in a shaking water bath at 37° C. for 10 minutes prior to the addition of 30 μM calcium ionophore (A23187; Sigma). After ionophore administration, whole blood samples are mixed and incubated for 20 minutes at 37° C. in a shaking water bath. Incubation is terminated by placing samples in an ice bath and immediately adding ethylene glycol-bis-(β-aminoethyl ether)-N,N,N',N'-tetraacetic acid (10 mM). Samples are mixed and centrifuged at 1200×g for 15 minutes at 4° C. Preparation of samples for evaluation by RIA or ELISA is carried out by the following protocol. Plasma is removed from sample tubes, placed in 15 ml polypropylene test tubes containing 8 ml methanol, and then vortexed to precipitate protein. Samples are stored at -70° C. overnight. The next day, samples are centrifuged at 200×g for 15 minutes at 4° C. to pellet the precipitate. Samples are dried in a Savant speed vac concentrator, reconstituted to original volume with ice cold RIA or ELISA buffer, and stored at -70° C. until assayed. The assay for eicosanoids (LTB4, TxB2, and PGE2) is performed as described by the manufacturer of the [^3 H]-RIA kit or ELISA kit (LTB4 -Amersham, TxB2 and PGE2 - Caymen Chemical).
The total eicosanoid level in 2 ml of blood is calculated and reported as ng/10^6 neutrophils. Significance is determined by a one-way analysis of variance with least significant difference (LSD) comparisons to control (p≤0.05) and IC50 's (μM) are determined by regression analysis (Finney, 1978). Drug effects are expressed as percent change form control values.
Compounds tested in vitro are solubilized in dimethylsulfoxide and diluted 1:10 in 10% bovine serum albumin in phosphate buffer saline resulting in a final dimethylsulfoxide concentration of 0.1% in the blood.

LTD4 = biological target: T2, LTD4 (Cavia porcellus, UniProt Q2NNR5); assay: LTD4 antagonist activity in isolated guinea pig trachea; type: cell-based; conditions: 1 × 10^-5 M
T2 construct: isolated guinea pig trachea; from tissue; host or cells: guinea pig tracheal rings
T2 sequence (Q2NNR5 1-340): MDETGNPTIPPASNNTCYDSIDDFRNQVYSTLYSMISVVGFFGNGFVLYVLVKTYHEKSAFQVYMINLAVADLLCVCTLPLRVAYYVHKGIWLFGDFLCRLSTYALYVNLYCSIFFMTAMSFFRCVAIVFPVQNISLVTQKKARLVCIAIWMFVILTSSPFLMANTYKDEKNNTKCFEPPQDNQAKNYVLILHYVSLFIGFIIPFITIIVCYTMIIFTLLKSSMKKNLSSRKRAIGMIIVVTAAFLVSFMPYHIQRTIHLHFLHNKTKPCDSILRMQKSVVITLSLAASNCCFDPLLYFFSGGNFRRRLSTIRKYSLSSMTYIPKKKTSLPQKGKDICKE
Description: The LTD4 antagonist activity of the compounds of the invention is assessed in the in vitro isolated guinea pig trachea assay. Male Hartley guinea pigs (350-400 g) are euthanized by a blow to the head, the neck is opened and the trachea removed. The trachea is maintained in aerated physiological salt solution, cleared of connective tissue and fat and cut into rings approximately 2 mm in width (usually containing two cartilaginous segments per ring). Two pieces of silk suture are then passed through the lumen of the tracheal ring and are tied around the cartilage, one on each side of the trachealis muscle. The tracheal ring is suspended between a glass hook and a force displacement transducer in a 10 ml organ bath for measurement of isometric tension. Tissues are maintained at 37° C. in aerated ([…] /5% CO2) physiological salt solution of the following composition: […] The tracheal rings are maintained at 2 g resting tension and equilibrated for 45 minutes (with frequence washing and readjustment of resting tension). The tracheal rings are first contracted by the addition of carbachol (3×10^-6 M), to determine tissue responsiveness and establish a reference contraction. On attainment of a stable level of contraction (approximately 30 minutes), the tissues are washed several times until baseline tension has been restored and the re-equilibrated for 30 minutes. The tissues are then incubated for 45 minutes with a test antagonist (either 1×10^-6 M or 1×10^-5 M) or 10 μl of an appropriate solvent control (control, non-treated). One tissue in each group serves as the control. Twenty minutes prior to the construction of the LTD4 cumulative concentration-response curve, L-[…]×10^-2 M final bath concentration) is added to inhibit bioconversion of LTD4 to LTE4. Only one LTD4 concentration-response curve is constructed in each tissue. All responses to LTD4 in an individual tissue are measured as a percentage of the reference contraction of that tissue to carbachol. LTD4 antagonist activity is determined by comparison of the concentration response curves of LTD4 in the presence and absence of antagonist. Assessment of the relative rightward shift of the antagonist treated curve relative to the solvent (control) treated tissue is calculated as a concentration ratio (Eq. A) and used in subsequent calculations to derive an antagonist pKB value (Eqs. B and C). In the vent that the maximum response to LTD4 is depressed, the EC50 for that particular curve is determined, an "apparent" pKB reported, and the compound reported as "not-competitive." [formula] If a compound is found to be active and/or depress the maximal response to LTD4, then a range of concentrations of the test compound should be used generating multiple concentration ratios which would than be used to perform a Schild analysis, and determination of a pA2 value where appropriate.

carrageenan paw edema = assay: rat carrageenan paw edema assay; type: in vivo; conditions: Rattus norvegicus, po, 3 h, read-out: Oral ED50 (95% C.L.)
Description: The compounds of the invention are further tested in the rat carrageenan paw edema assay to determine their ability to inhibit the acute inflammatory response.
140-180 gm male Sprague-Dawley rats, in groups of 6 animals are injected subcutaneously in the right paw with 0.1 ml of 1% carrageenan at zero time. Mercury plethysmographic readings (ml) of the paw are made at zero time and 3 hours later. Test compounds are suspended or dissolved in 0.5% methylcellulose and given perorally 1 hour prior to carrageenan administration.
The increase in paw volume (edema in ml.) produced by the carrageenan is measured. […] Unpaired Student's t-test is used to determine statistical significance.

| inhibition at 25 µM (5-lipoxygenase) [%] | IC50 (5-lipoxygenase) [nM] | Kb (LTD4) [nM] | Structure (SMILES) | ED50 (carrageenan paw edema) [mg/kg] |
| --- | --- | --- | --- | --- |
| 86 | 13500 | > 10000 | CC(NC(=O)NO)c1ccc2cc(OCc3csc(-c4ccccc4)n3)ccc2c1 (single isomer, unassigned; (-)) [Example 36, (-)-N-Hydroxy-N'-[1-[6-(2-phenyl-4-thiazolyl)methoxy-2-naphthalenyl]ethyl]urea] |  |
|  |  |  | CC(=O)Oc1ccccc1C(=O)O [Aspirin, reference compound] | 145 |
| 52 | 34400 | > 6310 | C[C@H](NC(=O)NO)c1ccc2cc(OCc3nc4ccccc4s3)ccc2c1 [Example 38, S-(-)-N-[1-[6-(2-Benzothiazolylmethoxy)-2-naphthalenyl]ethyl]-N'-hydroxyurea] |  |
| 91 | 6900 | 10000 | C[C@H](C(=O)N(C)O)c1ccc2cc(OCc3csc(-c4ccccc4)n3)ccc2c1 [Example 39, S(+)-N-Hydroxy-α,N-dimethyl-[6-(2-phenyl-4-thiazolyl)methoxy]-2-naphthaleneacetamide] |  |
| 83 | 11400 | 398 | C[C@H](C(=O)N(C)O)c1ccc2cc(OCc3nc4ccccc4s3)ccc2c1 [Example 41, S-(+)-N-Hydroxy-α,N-dimethyl-6-(2-benzothiazolylmethoxy)-2-naphthaleneacetamideone tenth hydrate] |  |
| 86 | 2000 | 1580 | C[C@H](C(=O)N(C)O)c1ccc2cc(OCc3ccccn3)ccc2c1 [Example 44, S-(+)-N-Hydroxy-α, N-diomethyl-6-(2-pyridinylmethoxy)-2-naphthaleneacetamide] |  |
| 75 | 1100 | 200 | C[C@H](C(=O)N(C)O)c1ccc2cc(OCc3nc4ccccc4n3C)ccc2c1 [Example 45, S-(+)-N-Hydroxy-α,N-dimethyl-6-[(1-methyl-1H-benzimidazol-2-yl)methoxy]-2-naphthaleneacetamide] |  |
| 84 | 2300 | 501 | C[C@H](C(=O)N(C)O)c1ccc2cc(OCc3nc4ccccc4o3)ccc2c1 [Example 47, S-N-Hydroxy-α, N-dimethyl-6-(2-benzoxazolylmethoxy)-2-naphthaleneacetamide] |  |
